Several values for one entry are separate records, joined by “and”; a condition that tells them apart may be missing. Equal entries are not always repeated.
Key:
H460TaxR [1] = assay: Cell viability assay (sulforhodamine B); format: cell-based, human; details: for EC50: Homo sapiens, H460/TaxR
Experimental: (§1) All biological reagents and solvents were obtained from commercial suppliers and used as recommended. The human NSCLC cell line H460 and P-gp-overexpressing drug-resistant cell line H460TaxR were cultured in RPMI-1640 medium supplemented with 10% fetal bovine serum, 100 units/ml penicillin and […] streptomycin. The NHFB cell line NHFB was cultured in DMEM with the same supplements. All cells were maintained in a 37 °C incubator with 95% humidity and 5% CO2.
(§2) The cell viability was determined using the sulforhodamine B assay.[64] In brief, cells (4000 cells in 100 μl medium) were seeded in 96-well culture plates and incubated for 24 h. The cells were treated with the compounds or with an equal volume (0.1%) of DMSO for 72 h. The cell viability was calculated using the following formula: cell viability=Atreatment/Acontrol. The EC50 values were determined using the Sigma Plot 10.0 software package (Systat Software Inc., San Jose, CA, USA).

H460 [2] = assay: Cell viability assay (sulforhodamine B); format: cell-based, human; details: H460 cells, 72 h
Experimental: as §1, §2

NHFB = assay: Cell viability assay (sulforhodamine B); format: cell-based; details: Fibroblast; NHFB normal human fibroblasts, 72 h
Experimental: as §1, §2

H460 xenograft = assay: NSCLC xenograft tumor growth inhibition; format: in vivo; details: H460 xenografted mice; TBPT 60 mg/kg i.v., five injections every other day
Experimental: (§3) (a) The tumor volume was measured every other day. […] (b) Blood biochemical and hematological analyses.

H460TaxR xenograft = assay: NSCLC xenograft tumor growth inhibition; format: in vivo; details: H460TaxR xenografted mice; TBPT 60 mg/kg i.v., five injections every other day
Experimental: as §3

H460TaxR [3] = assay: Apoptosis flow cytometry (PI/Annexin V-FITC); format: cell-based, human; details: NSCLC cells (H460TaxR), 2 μM, 48 h
H460TaxR [4] = assay: Immunofluorescence staining for microtubule structure; format: cell-based, human; details: 2 μM, 24 h
Experimental: (§4) The cells were washed in PBS and then fixed in paraformaldehyde (4% v/v) for 10 min. After the cells were washed three times in PBS, they were blocked with 5% (w/v) BSA for 30 min at RT. Then, α-tubulin antibody (CST, Beverly, MA, USA) was incubated with cells in a humid chamber overnight at 4 °C. After the cells were washed three times in PBS, they were incubated with goat anti-rabbit IgG-FITC (Jackson ImmunoResearch, West Grove, PA, USA) for 1 h at 37 °C. Then, the cells were mounted with mounting medium containing DAPI (Vector Lab, Peterborough, UK) after they were washed three times in PBS. Finally, the cells were observed and imaged using a fluorescence microscope (Olympus IX71, Tokyo, Japan).

H460 [5] = assay: as above; format: cell-based, human; details: H460, 2 μM, 24 h
Experimental: as §4

[6] = target: T1, ABL1(F317I)-nonphosphorylated (Homo sapiens, UniProt P00519, F317I); assay: KINOMEscan; format: binding; details: read-out: % Ctrl
T1 construct: purchased DiscoveRx KINOMEscan

[7] = target: T2, ABL1(F317I)-phosphorylated (Homo sapiens, UniProt P00519, F317I); assay: KINOMEscan; format: binding; details: read-out: % Ctrl
T2 construct: purchased DiscoveRx KINOMEscan

[8] = target: T3, ABL1(F317L)-phosphorylated (Homo sapiens, UniProt P00519, F317L); assay: KINOMEscan; format: binding; details: read-out: % Ctrl
T3 construct: purchased DiscoveRx KINOMEscan

HIPK4 = target: T4, HIPK4 (Homo sapiens, UniProt Q8NE63); assay: KINOMEscan; format: binding; details: read-out: % Ctrl
T4 construct: purchased DiscoveRx KINOMEscan
Experimental: (§5) The binding assay for 442 non-mutant kinases was performed using KINOMEscan (DiscoveRx Corporation, Fremont, CA, USA) as reported previously.[58], [59] TBPT was screened at concentrations of 5 and 10 μM to identify the affected kinases. KINOMEscan is based on a competition reaction that quantitatively measures the ability of a test compound to compete with an active site-directed ligand for binding to the kinase active site. […] After the assay plates were incubated with shaking for 1 h, the liganded beads were washed with washing buffer (1 × PBS and 0.05% Tween 20). Then, the beads were re-suspended in elution buffer (1 × PBS, 0.05% Tween 20, and 0.5 μM ligand) and incubated with shaking for 30 min. The kinase concentration in the eluates was measured via qPCR. The results are represented as ‘%Ctrl', which was calculated using the following formula: (test compound signal–positive control signal)/(DMSO signal–positive control signal) × 100%. A lower % Ctrl indicates stronger binding to the kinase active site.

LYN = target: T5, LYN (Homo sapiens, UniProt P07948); assay: KINOMEscan; format: binding; details: read-out: % Ctrl
T5 construct: purchased DiscoveRx KINOMEscan
Experimental: as §5

MAP4K5 = target: T6, MAP4K5 (Homo sapiens, UniProt Q9Y4K4); assay: KINOMEscan; format: binding; details: read-out: % Ctrl
T6 construct: purchased DiscoveRx KINOMEscan
Experimental: as §5

MEK5 = target: T7, MEK5 (Homo sapiens, UniProt Q13163); assay: KINOMEscan; format: binding; details: read-out: % Ctrl
T7 construct: purchased DiscoveRx KINOMEscan
Experimental: as §5

SRMS = target: T8, SRMS (Homo sapiens, UniProt Q9H3Y6); assay: KINOMEscan; format: binding; details: read-out: % Ctrl
T8 construct: purchased DiscoveRx KINOMEscan
Experimental: as §5

[9] = target: T9, EGFR(L747-E749del, A750P) (Homo sapiens, UniProt P00533, A750P/DEL747-749); assay: KINOMEscan; format: binding; details: read-out: % Ctrl
T9 construct: purchased DiscoveRx KINOMEscan

EGFR(L747-T751del,Sins) = assay: KINOMEscan; format: binding, human
EGFR(L858R) = target: T10, EGFR(L858R) (Homo sapiens, UniProt P00533, L858R); assay: KINOMEscan; format: binding; details: read-out: % Ctrl
T10 construct: purchased DiscoveRx KINOMEscan

FGFR3(G697C) = target: T11, FGFR3(G697C) (Homo sapiens, UniProt P22607, G697C); assay: KINOMEscan; format: binding; details: read-out: % Ctrl
T11 construct: purchased DiscoveRx KINOMEscan

KIT(V559D) = target: T12, KIT(V559D) (Homo sapiens, UniProt P10721, V559D); assay: KINOMEscan; format: binding; details: read-out: % Ctrl
T12 construct: purchased DiscoveRx KINOMEscan

T4 sequence (Q8NE63 whole entry): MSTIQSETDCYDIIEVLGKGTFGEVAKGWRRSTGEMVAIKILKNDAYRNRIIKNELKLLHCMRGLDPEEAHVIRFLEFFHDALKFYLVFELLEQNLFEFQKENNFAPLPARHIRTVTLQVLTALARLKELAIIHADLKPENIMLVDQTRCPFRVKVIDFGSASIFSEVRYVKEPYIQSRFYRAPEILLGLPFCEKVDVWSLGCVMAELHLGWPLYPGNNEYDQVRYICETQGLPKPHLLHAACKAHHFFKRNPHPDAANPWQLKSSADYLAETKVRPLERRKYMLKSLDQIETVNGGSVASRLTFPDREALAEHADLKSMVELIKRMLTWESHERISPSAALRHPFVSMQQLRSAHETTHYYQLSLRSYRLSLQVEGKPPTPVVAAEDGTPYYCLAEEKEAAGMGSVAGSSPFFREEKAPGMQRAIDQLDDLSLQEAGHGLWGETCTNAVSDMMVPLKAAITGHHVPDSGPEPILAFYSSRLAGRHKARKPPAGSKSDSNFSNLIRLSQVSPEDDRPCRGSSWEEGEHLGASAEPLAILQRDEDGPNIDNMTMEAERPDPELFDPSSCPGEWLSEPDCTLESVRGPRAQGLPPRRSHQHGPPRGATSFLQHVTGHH
T3 sequence (P00519 whole entry F317L): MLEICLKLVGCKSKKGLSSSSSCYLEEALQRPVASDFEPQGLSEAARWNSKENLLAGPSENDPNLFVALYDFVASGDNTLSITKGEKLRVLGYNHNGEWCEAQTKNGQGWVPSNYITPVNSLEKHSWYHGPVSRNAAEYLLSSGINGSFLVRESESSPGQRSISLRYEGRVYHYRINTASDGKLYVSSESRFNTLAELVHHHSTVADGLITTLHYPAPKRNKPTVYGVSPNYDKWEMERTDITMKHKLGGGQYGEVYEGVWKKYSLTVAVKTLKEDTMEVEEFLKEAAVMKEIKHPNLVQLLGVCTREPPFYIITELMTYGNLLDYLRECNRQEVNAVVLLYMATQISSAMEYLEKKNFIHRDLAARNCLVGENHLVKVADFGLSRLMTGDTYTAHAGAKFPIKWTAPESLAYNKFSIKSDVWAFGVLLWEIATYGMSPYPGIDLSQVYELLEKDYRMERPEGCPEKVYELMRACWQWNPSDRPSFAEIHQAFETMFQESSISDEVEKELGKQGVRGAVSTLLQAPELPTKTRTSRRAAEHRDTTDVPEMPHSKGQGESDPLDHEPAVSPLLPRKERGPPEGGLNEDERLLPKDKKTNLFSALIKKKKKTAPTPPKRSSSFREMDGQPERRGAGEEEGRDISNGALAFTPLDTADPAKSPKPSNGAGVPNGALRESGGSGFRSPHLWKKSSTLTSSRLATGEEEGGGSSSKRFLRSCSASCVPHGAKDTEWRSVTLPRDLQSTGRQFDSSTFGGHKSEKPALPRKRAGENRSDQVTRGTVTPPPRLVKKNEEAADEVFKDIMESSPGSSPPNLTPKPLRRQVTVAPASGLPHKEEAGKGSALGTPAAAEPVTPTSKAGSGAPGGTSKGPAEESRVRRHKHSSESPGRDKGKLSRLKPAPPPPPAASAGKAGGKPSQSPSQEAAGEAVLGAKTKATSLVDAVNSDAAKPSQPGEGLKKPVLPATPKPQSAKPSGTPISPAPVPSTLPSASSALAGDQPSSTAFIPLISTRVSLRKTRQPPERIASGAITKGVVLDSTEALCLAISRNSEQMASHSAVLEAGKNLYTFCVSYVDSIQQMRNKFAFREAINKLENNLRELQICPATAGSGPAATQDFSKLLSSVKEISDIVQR
T6 sequence (Q9Y4K4 whole entry): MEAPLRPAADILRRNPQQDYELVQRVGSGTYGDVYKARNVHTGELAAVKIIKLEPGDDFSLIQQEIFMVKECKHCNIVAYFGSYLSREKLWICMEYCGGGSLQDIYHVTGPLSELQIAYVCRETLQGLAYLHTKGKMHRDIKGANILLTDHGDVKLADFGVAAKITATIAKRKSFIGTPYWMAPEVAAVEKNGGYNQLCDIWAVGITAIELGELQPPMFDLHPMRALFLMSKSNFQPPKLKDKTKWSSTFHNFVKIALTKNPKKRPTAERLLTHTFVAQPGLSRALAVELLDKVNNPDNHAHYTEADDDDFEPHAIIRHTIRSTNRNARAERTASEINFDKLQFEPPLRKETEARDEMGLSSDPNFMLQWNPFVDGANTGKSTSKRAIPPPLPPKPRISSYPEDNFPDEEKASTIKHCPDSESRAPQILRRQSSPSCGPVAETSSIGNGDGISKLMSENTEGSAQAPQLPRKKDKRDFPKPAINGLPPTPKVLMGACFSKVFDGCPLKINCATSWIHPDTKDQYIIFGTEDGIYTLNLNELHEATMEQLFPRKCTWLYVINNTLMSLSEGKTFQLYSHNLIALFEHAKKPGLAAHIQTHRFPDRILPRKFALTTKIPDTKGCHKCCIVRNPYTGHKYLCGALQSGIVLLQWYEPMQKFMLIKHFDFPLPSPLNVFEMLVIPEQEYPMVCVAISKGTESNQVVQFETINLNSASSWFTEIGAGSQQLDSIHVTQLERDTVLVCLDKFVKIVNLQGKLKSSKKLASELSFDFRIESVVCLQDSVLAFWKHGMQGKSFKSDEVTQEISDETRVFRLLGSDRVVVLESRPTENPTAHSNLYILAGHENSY
T8 sequence (Q9H3Y6 whole entry): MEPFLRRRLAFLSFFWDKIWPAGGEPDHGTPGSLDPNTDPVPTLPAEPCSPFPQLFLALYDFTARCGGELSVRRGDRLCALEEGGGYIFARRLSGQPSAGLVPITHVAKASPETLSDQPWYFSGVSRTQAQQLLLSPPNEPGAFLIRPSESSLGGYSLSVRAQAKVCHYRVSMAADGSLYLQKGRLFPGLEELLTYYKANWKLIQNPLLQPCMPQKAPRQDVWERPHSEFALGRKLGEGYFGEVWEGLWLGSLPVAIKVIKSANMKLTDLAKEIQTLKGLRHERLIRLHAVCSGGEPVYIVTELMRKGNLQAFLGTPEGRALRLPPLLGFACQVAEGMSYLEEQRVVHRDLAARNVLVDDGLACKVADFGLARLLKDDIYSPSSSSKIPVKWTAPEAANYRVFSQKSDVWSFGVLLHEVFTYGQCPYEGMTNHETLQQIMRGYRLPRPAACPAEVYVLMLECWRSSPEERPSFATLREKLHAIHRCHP
T7 sequence (Q13163 whole entry): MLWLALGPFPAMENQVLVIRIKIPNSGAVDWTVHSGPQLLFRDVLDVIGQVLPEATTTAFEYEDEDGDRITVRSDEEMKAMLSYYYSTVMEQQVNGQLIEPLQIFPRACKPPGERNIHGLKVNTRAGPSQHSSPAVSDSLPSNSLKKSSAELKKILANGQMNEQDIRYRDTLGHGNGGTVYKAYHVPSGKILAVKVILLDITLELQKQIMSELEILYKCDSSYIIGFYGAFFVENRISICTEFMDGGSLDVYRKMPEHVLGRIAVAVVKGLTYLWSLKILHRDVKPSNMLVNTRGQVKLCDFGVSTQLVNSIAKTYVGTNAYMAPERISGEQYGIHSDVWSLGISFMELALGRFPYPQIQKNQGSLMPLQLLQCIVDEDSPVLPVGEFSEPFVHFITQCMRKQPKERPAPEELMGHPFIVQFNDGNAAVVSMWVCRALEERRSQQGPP
T1 sequence (P00519 whole entry F317I): as the sequence (P00519 whole entry F317L) above, with L317I counted along it
T2 sequence (P00519 whole entry F317I): as the sequence (P00519 whole entry F317L) above, with L317I counted along it
T10 sequence (P00533 25-1210 L858R): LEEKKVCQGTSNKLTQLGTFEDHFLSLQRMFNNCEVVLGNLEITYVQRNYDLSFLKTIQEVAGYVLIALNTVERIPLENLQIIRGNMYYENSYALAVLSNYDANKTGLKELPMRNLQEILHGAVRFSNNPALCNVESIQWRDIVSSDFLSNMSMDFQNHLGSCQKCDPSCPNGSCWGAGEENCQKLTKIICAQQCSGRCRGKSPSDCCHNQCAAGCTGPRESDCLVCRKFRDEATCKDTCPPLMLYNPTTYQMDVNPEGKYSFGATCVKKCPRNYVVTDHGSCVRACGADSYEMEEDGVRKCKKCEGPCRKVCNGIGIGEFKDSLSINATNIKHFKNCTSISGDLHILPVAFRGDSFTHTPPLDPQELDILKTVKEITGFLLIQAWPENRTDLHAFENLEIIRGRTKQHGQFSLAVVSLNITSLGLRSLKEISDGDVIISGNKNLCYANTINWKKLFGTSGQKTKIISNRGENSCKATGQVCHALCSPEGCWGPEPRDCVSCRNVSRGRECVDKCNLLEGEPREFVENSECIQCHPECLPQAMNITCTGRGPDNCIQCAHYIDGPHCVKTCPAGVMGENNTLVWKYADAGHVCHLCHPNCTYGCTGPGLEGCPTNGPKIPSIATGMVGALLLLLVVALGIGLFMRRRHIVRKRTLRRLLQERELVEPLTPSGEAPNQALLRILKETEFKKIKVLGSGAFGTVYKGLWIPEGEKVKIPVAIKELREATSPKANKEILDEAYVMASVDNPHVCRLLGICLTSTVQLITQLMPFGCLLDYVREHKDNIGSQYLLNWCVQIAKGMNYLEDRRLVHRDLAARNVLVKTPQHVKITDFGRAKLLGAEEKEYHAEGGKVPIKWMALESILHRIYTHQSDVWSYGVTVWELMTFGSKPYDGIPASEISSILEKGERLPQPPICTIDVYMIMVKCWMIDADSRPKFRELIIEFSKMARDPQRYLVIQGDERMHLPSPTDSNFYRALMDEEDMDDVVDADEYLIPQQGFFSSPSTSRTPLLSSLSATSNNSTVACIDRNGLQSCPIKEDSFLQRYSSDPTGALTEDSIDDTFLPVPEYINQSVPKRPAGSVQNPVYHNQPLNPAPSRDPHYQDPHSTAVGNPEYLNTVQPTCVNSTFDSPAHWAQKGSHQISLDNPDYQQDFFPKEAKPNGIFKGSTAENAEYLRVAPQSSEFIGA

With `Cc1ccc(C2=Nc3cccnc3S(=O)(=O)c3ccccc32)cc1` [TBPT, 6-(p-tolyl)benzo[f] pyrido[2,3-b][1,4] thiazepine 11,11-dioxide] the “Resistance Folds” value (H460TaxR [1]; EC50 in H460TaxR cells divided by EC50 in H460 cells) was 1.3, the EC50 (H460TaxR [1]; 72 h, H460TaxR cells) was under 500 nM and the EC50 (H460TaxR [1]; H460TaxR(+Rev), Reversan (P-gp inhibitor)) was 610 ± 260 nM. For the same compound, the EC50 (H460 [2]) was 450 ± 190 nM, the EC50 (H460 [2]; Homo sapiens, NCI-H460, 72 h) was under 500 nM and the EC50 (NHFB) was over 100000 nM. The “tumor growth inhibition, TGI” value (H460 xenograft) was 62.9% and > 60%, the “tumor growth inhibition, TGI” value (H460TaxR xenograft) was 66.7% and > 60% and the “cells in an apoptotic/necrotic state” value (H460TaxR [3]) was “approximately 50%”. For the same compound, the “microtubule organization in live cells” value (H460TaxR [4]) was “disordered microtubule fragments”, the “microtubule organization in live cells” value (H460 [5]) was “disordered microtubule fragments” and the remaining binding at 5 µM ([6]; 5 μM) was 89%. It also gave a remaining binding at 10 µM ([6]; 10 μM) of 100%, a remaining binding at 5 µM ([7]; 5 μM) of 78% and a remaining binding at 10 µM ([7]; 10 μM) of 81%. The remaining binding at 5 µM ([8]; 5 μM) was 72%, the remaining binding at 10 µM ([8]; 10 μM) was 98% and the remaining binding at 5 µM (HIPK4; 5 μM) was 91%. The remaining binding at 10 µM (HIPK4; 10 μM) was 100%, the remaining binding at 5 µM (LYN; 5 μM) was 87% and the remaining binding at 10 µM (LYN; 10 μM) was 100%. It also gave a remaining binding at 5 µM (MAP4K5; 5 μM) of 100%, a remaining binding at 10 µM (MAP4K5; 10 μM) of 85% and a remaining binding at 5 µM (MEK5; 5 μM) of 100%. It also gave a remaining binding at 10 µM (MEK5; 10 μM) of 95%, a remaining binding at 5 µM (SRMS; 5 μM) of 87% and a remaining binding at 10 µM (SRMS; 10 μM) of 97%. For the same compound, the remaining binding at 5 µM ([9]; 5 μM) was 91%, the remaining binding at 10 µM ([9]; 10 μM) was 91% and the “% Ctrl” value (EGFR(L747-T751del,Sins); 5 μM) was 88%. The “% Ctrl” value (EGFR(L747-T751del,Sins); 10 μM) was 98%, the remaining binding at 5 µM (EGFR(L858R); 5 μM) was 85% and the remaining binding at 10 µM (EGFR(L858R); 10 μM) was 100%. It also gave a remaining binding at 5 µM (FGFR3(G697C); 5 μM) of 100%, a remaining binding at 10 µM (FGFR3(G697C); 10 μM) of 82% and a remaining binding at 5 µM (KIT(V559D); 5 μM) of 72%. For the same compound, the remaining binding at 10 µM (KIT(V559D); 10 μM) was 91%.

From paper PMC4823954, “From fighting depression to conquering tumors: a novel tricyclic thiazepine compound as a tubulin polymerization inhibitor” (Cell Death & Disease, 2016)
